From patent publication US8455534B2, “Estrogen receptor modulators and uses thereof” (Aragon Pharmaceuticals, Inc., priority 2010, dated 2013)

Columns and labels:
ER-α = target: T1, ER-α (Homo sapiens, UniProt P03372); experiment: Breast Cancer Cell ER-α In Cell Western Assay (SP1); type: cell-based; settings: MCF-7 cells, SP1 antibody, 4 or 24 hr post compound addition; for Emax: MCF7, read-out: ER-α In Cell Western Assay (SP1) Max Response; for DC50: read-out: ER-α In Cell Western Assay (SP1) IC50
T1 sequence (P03372 1-595): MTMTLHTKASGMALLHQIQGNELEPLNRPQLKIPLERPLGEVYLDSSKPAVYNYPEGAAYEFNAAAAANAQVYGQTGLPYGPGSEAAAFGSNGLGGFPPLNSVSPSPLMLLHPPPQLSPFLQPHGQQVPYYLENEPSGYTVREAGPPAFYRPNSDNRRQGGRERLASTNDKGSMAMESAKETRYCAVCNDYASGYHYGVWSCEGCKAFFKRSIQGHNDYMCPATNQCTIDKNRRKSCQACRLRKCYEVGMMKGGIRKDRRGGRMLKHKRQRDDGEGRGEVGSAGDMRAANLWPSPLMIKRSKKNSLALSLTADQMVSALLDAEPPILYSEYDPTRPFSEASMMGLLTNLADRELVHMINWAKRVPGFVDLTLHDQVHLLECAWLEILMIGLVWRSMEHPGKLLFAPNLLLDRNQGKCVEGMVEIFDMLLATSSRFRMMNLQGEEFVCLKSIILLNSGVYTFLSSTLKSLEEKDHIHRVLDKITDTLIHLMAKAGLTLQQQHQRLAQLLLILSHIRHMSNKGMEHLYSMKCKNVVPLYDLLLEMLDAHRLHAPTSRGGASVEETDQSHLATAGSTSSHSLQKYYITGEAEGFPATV
Procedure, shortened: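 ER-α protein levels measured by in-cell western with SP1 antibody, ratioed to DRAQ5 DNA signal and given as percent of untreated controls. Compounds added at 0.3–0.000003 μM final (eleven semilog points) to adherent MCF-7 cells in stripped serum; exposure 4 or 24 h before fixation.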

MCF-7 cells = experiment: Breast Cancer Cell Viability Assay (MCF-7, CellTiter-Glo); type: cell-based; settings: 5 days' compound exposure; for IC50: Homo sapiens, MCF7, 120 h
Procedure, shortened: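 MCF-7 cells, 320 per well in RPMI with 10% FBS and 20 mM HEPES, adhered overnight, then exposed 5 days to an eleven-point semilog dilution (final 0.3-0.000003 μM). CellTiter-Glo luminescence read; % viability = (sample − cell-free background)/(untreated − background) × 100.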

Structure (SMILES)	Emax (ER-α) [%]	DC50 (ER-α) [nM]	IC50 (MCF-7 cells) [nM]	MCF7 Viability Assay Max Response (MCF-7 cells)
CC/C(=C(/c1ccc(/C=C/C(=O)O)cc1)c1cc2cn[nH]c2cc1F)c1ccccc1 [Compound 58, (E)-3-(4-((E)-1-(6-Fluoro-1H-indazol-5-yl)-2-phenylbut-1-en-1-yl)phenyl)acrylic acid]	≥ 40	≤ 100	≤ 100	++ (++ = a single % value ≧ 40%)
CC/C(=C(/c1ccc(/C=C/C(=O)O)cc1)c1ccc2[nH]ncc2c1)c1ccc(F)c(C)c1 [Compound 29, (E)-3-(4-((E)-2-(4-Fluoro-3-methylphenyl)-1-(1H-indazol-5-yl)but-1-en-1-yl)phenyl)acrylic acid]	≥ 40	≤ 100	≤ 100	++ (++ = a single % value ≧ 40%)
CC/C(=C(/c1ccc(/C=C/C(=O)O)cc1)c1ccc2[nH]ncc2c1)c1ccccc1 [Compound 2, (E)-3-(4-((E)-1-(1H-Indazol-5-yl)-2-phenylbut-1-en-1-yl)phenyl)acrylic acid]	≥ 40	–	≤ 100	++ (++ = a single % value ≧ 40%)
CC/C(=C(/c1ccc(/C=C/C(=O)O)cc1)c1ccc2[nH]ncc2c1)c1cccc(C#N)c1C [Compound 141, (E)-3-(4-((E)-2-(3-Cyano-2-methylphenyl)-1-(1H-indazol-5-yl)but-1-en-1-yl)phenyl)acrylic acid]	≥ 40	≤ 100	> 100	++ (++ = a single % value ≧ 40%)
CC/C(=C(/c1ccc(/C=C/C(=O)O)cc1)c1ccc2[nH]ncc2c1F)c1ccccc1 [Compound 49, (E)-3-(4-((E)-1-(4-Fluoro-1H-indazol-5-yl)-2-phenylbut-1-en-1-yl)phenyl)acrylic acid]	≥ 40	≤ 100	≤ 100	++ (++ = a single % value ≧ 40%)
CC/C(=C(/c1ccc(/C=C/C(=O)O)cc1)c1ccc2c(cnn2C)c1)c1ccc(F)cc1Cl [Compound 147, (E)-3-(4-((E)-2-(2-Chloro-4-fluorophenyl)-1-(1-methyl-1H-indazol-5-yl)but-1-en-1-yl)phenyl)acrylic acid]	≥ 40	≤ 100	≤ 100	++ (++ = a single % value ≧ 40%)
CC/C(=C(/c1ccc(/C=C/C(=O)O)cc1)c1ccc2[nH]ncc2c1F)c1ccc(F)cc1C [Compound 69, (E)-3-(4-((E)-1-(4-Fluoro-1H-indazol-5-yl)-2-(4-fluoro-2-methylphenyl)but-1-en-1-yl)phenyl)acrylic acid]	≥ 40	≤ 100	≤ 100	++ (++ = a single % value ≧ 40%)
CC/C(=C(/c1ccc(/C=C/C(=O)O)cc1)c1ccc2[nH]ncc2c1)c1ccc(Cl)cc1C [Compound 41, (E)-3-(4-((E)-2-(4-Chloro-2-methylphenyl)-1-(1H-indazol-5-yl)but-1-en-1-yl)phenyl)acrylic acid]	≥ 40	≤ 100	≤ 100	++ (++ = a single % value ≧ 40%)
CC/C(=C(/c1ccc(/C=C/C(=O)O)cc1)c1ccc2[nH]ncc2c1)c1cccc(C)c1 [Compound 10, (E)-3-(4-((E)-1-(1H-Indazol-5-yl)-2-(m-tolyl)but-1-en-1-yl)phenyl)acrylic acid]	≥ 40	≤ 100	≤ 100	++ (++ = a single % value ≧ 40%)
O=C(O)/C=C/c1ccc(/C(=C(\c2ccccc2)C2CCC2)c2ccc3[nH]nc(F)c3c2)cc1 [Compound 87, (E)-3-(4-((E)-2-Cyclobutyl-1-(3-fluoro-1H-indazol-5-yl)-2-phenylvinyl)phenyl)acrylic acid]	≥ 40	≤ 100	≤ 100	++ (++ = a single % value ≧ 40%)
CC/C(=C(/c1ccc(/C=C/C(=O)O)cc1)c1ccc2[nH]ncc2c1)c1ccc(F)cc1C [Compound 25, (E)-3-(4-((E)-2-(4-Fluoro-2-methylphenyl)-1-(1H-indazol-5-yl)but-1-en-1-yl)phenyl)acrylic acid]	≥ 40	≤ 100	≤ 100	++ (++ = a single % value ≧ 40%)
O=C(O)/C=C/c1ccc(/C(=C(\c2ccc(F)cc2Cl)C2CCC2)c2ccc3[nH]ncc3c2)cc1 [Compound 85, (E)-3-(4-((E)-2-(2-Chloro-4-fluorophenyl)-2-cyclobutyl-1-(1H-indazol-5-yl)vinyl)phenyl)acrylic acid]	≥ 40	≤ 100	≤ 100	++ (++ = a single % value ≧ 40%)
CC/C(=C(/c1ccc(/C=C/C(=O)O)cc1)c1ccc2[nH]ncc2c1)c1ccccc1Cl [Compound 14, (E)-3-(4-((E)-2-(2-chlorophenyl)-1-(1H-indazol-5-yl)but-1-en-1-yl)phenyl)acrylic acid]	≥ 40	–	≤ 100	++ (++ = a single % value ≧ 40%)
CCCCOc1ccc(/C(CC)=C(\c2ccc(/C=C/C(=O)O)cc2)c2ccc3[nH]ncc3c2)cc1 [Compound 97, (E)-3-(4-((E)-2-(4-Butoxyphenyl)-1-(1H-indazol-5-yl)but-1-en-1-yl)phenyl)acrylic acid]	≥ 40	≤ 100	≤ 100	++ (++ = a single % value ≧ 40%)
O=C(O)/C=C/c1ccc(/C(=C(/CCCl)c2ccccc2)c2ccc3[nH]ncc3c2)cc1 [Compound 20, (E)-3-(4-((E)-4-Chloro-1-(1H-indazol-5-yl)-2-phenylbut-1-en-1-yl)phenyl)acrylic acid]	≥ 40	≤ 100	≤ 100	++ (++ = a single % value ≧ 40%)

Further lines, with some results ahead:

Emax (ER-α) [%]	DC50 (ER-α) [nM]	IC50 (MCF-7 cells) [nM]	Structure (SMILES)	MCF7 Viability Assay Max Response (MCF-7 cells)
≥ 40	≤ 100	≤ 100	CC/C(=C(/c1ccc(/C=C/C(=O)O)cc1)c1ccc2[nH]ncc2c1F)c1ccc(Cl)cc1Cl [Compound 118, (E)-3-(4-((E)-2-(2,4-Dichlorophenyl)-1-(4-fluoro-1H-indazol-5-yl)but-1-en-1-yl)phenyl)acrylic acid]	++ (++ = a single % value ≧ 40%)
≥ 40	≤ 100	≤ 100	O=C(O)/C=C/c1ccc(/C(=C(/CCF)c2ccc(F)cc2)c2ccc3[nH]ncc3c2)cc1 [Compound 78, (E)-3-(4-((E)-4-Fluoro-2-(4-fluorophenyl)-1-(1H-indazol-5-yl)but-1-en-1-yl)phenyl)acrylic acid]	++ (++ = a single % value ≧ 40%)
≥ 40	≤ 100	≤ 100	CC/C(=C(/c1ccc(/C=C/C(=O)O)cc1)c1ccc2[nH]ncc2c1)c1cc(OC)ccc1Cl [Compound 130, (E)-3-(4-((E)-2-(2-Chloro-5-methoxyphenyl)-1-(1H-indazol-5-yl)but-1-en-1-yl)phenyl)acrylic acid]	++ (++ = a single % value ≧ 40%)
≥ 40	≤ 100	≤ 100	CC/C(=C(/c1ccc(/C=C/C(=O)O)cc1)c1ccc2[nH]ncc2c1F)c1ccc(Cl)cc1C [Compound 70, (E)-3-(4-((E)-2-(4-Chloro-2-methylphenyl)-1-(4-fluoro-1H-indazol-5-yl)but-1-en-1-yl)phenyl)acrylic acid]	++ (++ = a single % value ≧ 40%)
≥ 40	≤ 100	≤ 100	CC/C(=C(/c1ccc(/C=C/C(=O)O)cc1)c1ccc2[nH]ncc2c1)c1ccccc1F [Compound 16, (E)-3-(4-((E)-2-(2-Fluorophenyl)-1-(1H-indazol-5-yl)but-1-en-1-yl)phenyl)acrylic acid]	++ (++ = a single % value ≧ 40%)
≥ 40	≤ 100	≤ 100	CC/C(=C(/c1ccc(/C=C/C(=O)O)cc1)c1ccc2[nH]ncc2c1)c1ccc(OC)cc1Cl [Compound 121, (E)-3-(4-((E)-2-(2-Chloro-4-methoxyphenyl)-1-(1H-indazol-5-yl)but-1-en-1-yl)phenyl)acrylic acid]	++ (++ = a single % value ≧ 40%)
≥ 40	≤ 100	≤ 100	O=C(O)/C=C/c1ccc(/C(=C(\c2ccccc2)C2CCCCC2)c2ccc3[nH]ncc3c2)cc1 [Compound 54, (E)-3-(4-((E)-2-Cyclohexyl-1-(1H-indazol-5-yl)-2-phenylvinyl)phenyl)acrylic acid]	++ (++ = a single % value ≧ 40%)
